Source: patent US20060276393A1, “Novel compositions for preventing and treating neurodegenerative and blood coagulation disorders” (Sirtris Pharmaceuticals, Inc., priority 2005, published 2006)

How the values were obtained:
recombinant GST-Sir2 = recombinant GST-Sir2 (Saccharomyces cerevisiae, UniProt P06700); assay: Sir2 deacetylation rate assay; assay type: biochemical, S. cerevisiae; conditions: in vitro dose-response
Method: Average lifespan for wild type, 22.9 generations, quercetin, 23.4; piceatannol.
His6-tagged recombinant SIRT1 and GST-tagged recombinant Sir2 were prepared as previously described^26. From 0.1 to 1 μg of SIRT1 and 1.5 μg of Sir2 were used per deacetylation assay (in 50 μl total reaction) as previously described^26. SIRT1 assays and certain of those for Sir2 employed the p53-382 acetylated substrate (° Fluor de Lys-SIRT1′, BIOMOL) rather than FdL.
Themed compound libraries (BIOMOL) were used for primary and secondary screening. Most polyphenol compounds were dissolved at 10 mM in dimethylsulfoxide (DMSO) on the day of the assay. For water soluble compounds and negative controls, 1% v/v DMSO was added to the assay. In vitro fluorescence assay results were read in white ½-volume 96-well microplates (Coming Costar 3693) with a CytoFluor™. II fluorescence plate reader (PerSeptive Biosystems, Ex. 360 nm, Em. 460 nm, gain=85). HeLa cells were grown and the cellular deacetylation assays were performed and read, as above, but in full-volume 96-well microplates (Coming Costar 3595). […] Calculation of net fluorescence increases included subtraction of a blank value, which in the case of Sir2 was obtained by omitting the enzyme from the reaction and in the case of SIRT1 by adding an inhibitor (200 μM suramin or 1 mM nicotinamide) to the reaction prior to the acetylated substrate. […]

C. elegans = C. elegans lifespan; assay type: in vivo
Method: Thus, the presence of resveratrol in the growth media of C. elegans extends their lifespan.
Bristol N2 (Caenorhabditis Genetics Center) was used as the wild-type strain. The sir-2.1 mutant strain was generated by backcrossing VC199 (sir-2.1(ok434)) to N2 four times. Cultures were grown on standard NGM media and maintained on E. coli strain OP50. For the lifespan assays, synchronized animals were transferred to treatment plates as young adults (2 d after hatching, day 0 of assay), and were transferred to fresh treatment plates every 2 days for the first 6 to 8 days of the assay. […] For some lifespan trials, heat-killed OP50 were used as a food source. OP50 cultures were heated to 65° C. for 30 minutes, then pelleted and resuspended in 1/10 volume in S Basal supplemented with 10 mM MgSO4. In all assays, worms were monitored daily for mortality by gently probing with a platinum pick. Assays were performed at 24° C. To assay worm feeding rates, worms at the indicated stages were placed on treatment plates (no FUdR) for 4-5 hours, then videoed for 1 minute using a Pixelink PL-662 camera. The frame rate was slowed and the pumping rate of the pharynx was counted. To assay fecundity, gravid hermaphrodites (5 per plate, raised from synchronized L1s on normal or treatment plates) were allowed to lay eggs on their respective media for 5 hours, and the total number of eggs was counted.

recombinant GST-Sir2, sequence (P06700 whole entry): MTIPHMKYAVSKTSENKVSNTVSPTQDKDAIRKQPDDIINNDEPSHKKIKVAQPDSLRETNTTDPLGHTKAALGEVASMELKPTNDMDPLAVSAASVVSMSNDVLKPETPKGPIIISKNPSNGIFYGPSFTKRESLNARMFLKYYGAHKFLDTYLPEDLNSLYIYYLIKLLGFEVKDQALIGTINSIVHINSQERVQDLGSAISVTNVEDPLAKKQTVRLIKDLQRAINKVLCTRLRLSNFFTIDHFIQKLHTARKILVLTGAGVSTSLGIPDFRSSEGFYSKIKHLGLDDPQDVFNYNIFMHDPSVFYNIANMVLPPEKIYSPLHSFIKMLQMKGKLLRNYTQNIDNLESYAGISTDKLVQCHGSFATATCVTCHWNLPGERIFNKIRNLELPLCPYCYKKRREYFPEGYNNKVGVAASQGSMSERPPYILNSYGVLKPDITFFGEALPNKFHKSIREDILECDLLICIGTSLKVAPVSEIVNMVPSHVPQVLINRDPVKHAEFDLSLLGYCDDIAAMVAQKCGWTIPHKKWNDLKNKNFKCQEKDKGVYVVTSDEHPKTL

In the case of `Oc1ccc(/C=C/c2cc(O)cc(O)c2)cc1` [Resveratrol, 3,5,4′-Trihydroxy-trans-stilbene], the “concentrations at which inhibition of Sir2 was seen” value (recombinant GST-Sir2) is reported as over 100 µM, the “optimum concentration of activator for Sir2 stimulation” value (recombinant GST-Sir2) is reported as 2 to 5 µM and the “worms alive on day 17” value (C. elegans; 50 worms strain N2, 100 μM, control 5 alive) is reported as 17 worms. It also gave a lifespan extension (C. elegans; sir-2.1 mutants, 100 μM, heat-killed OP50, not statistically significant) of 5.2%, a lifespan extension (C. elegans; sir-2.1 mutants, 100 μM, live OP50, P=0.81) of 3.3% and a lifespan extension (C. elegans; wild-type N2, 100 μM, live OP50) of 12.6%. The “lifespan extended (maximum)” value (C. elegans; wild-type worms, 100 μM, heat-killed or live E. coli) was “up to 15%”.
